We go through one substance from patent publication US20150232856A1, “TELOMERASE INHIBITORS FOR USE IN THERAPY” (AGENCY FOR SCIENCE, TECHNOLOGY AND RESEARCH, priority 2012, published 2015).

The data set has as its system A2780cp cells. Description: Colony formation assay. The data set is classed as cell-based, human. The conditions noted are these: significantly rescued by ectopic expression of p65 (FIGS. 1G & H).

Protocol: F. Colony formation assay: A2780cp cells were infected with p65 expressing or GFP (Cntrl) virus followed by plating 1000 cells per condition. The cells were then treated with 2 μM MST312 or DMSO control for 2 weeks followed by staining with crystal violet after 12 days. Number of colonies was counted from duplicate plates.

“sh-hTERT: shRNA directed against hTERT, SEQ ID NO: 48 (CATTTCATCAGCAAGTTTGGA)”: the “colony forming ability of cells” value was “reduction in colony forming ability”.
